The nature of series [1]: Compound cytotoxicity, XTT-based colorimetric assay. The series is classed as cell-based. The following applies: human; uninfected MT2 cells, day 4, XTT assay. The protocol:
Compound cytotoxicity and the corresponding CC50 values were determined using the same protocol as described in the antiviral assay except that uninfected cells were used. Cytotoxicity was assessed on day 4 in uninfected MT2 cells by using an XTT (2,3-bis[2-Methoxy-4-nitro-5-sulfophenyl]-2H-tetrazolium-5-carboxyanilide inner salt)-based colorimetric assay (Sigma-Aldrich, St Louis, Mo).
(In general: Formazan colour is commonly taken as a measure of viable cells.)

For series [2], the system named is recombinant NL4-3 virus. Put plainly: HIV cell culture assay (antiviral activity, luciferase readout in infected MT-2 cells). It is filed as cell-based. The following applies: Human immunodeficiency virus 1, NL43, MT2. The protocol:
HIV cell culture assay—MT-2 cells, 293T cells and the proviral DNA clone of NL4-3 virus were obtained from the NIH AIDS Research and Reference Reagent Program. MT-2 cells were propagated in RPMI 1640 media supplemented with 10% heat inactivated fetal bovine serum (FBS), 100 μg/ml penicillin G and up to 100 units/mL streptomycin. The 293T cells were propagated in DMEM media supplemented with 10% heat inactivated FBS, 100 μg/mL penicillin G and 100 μg/mL streptomycin. A recombinant NL4-3 proviral clone, in which a section of the nef gene was replaced with the Renilla luciferase gene, was used to make the reference virus used in these studies. The recombinant virus was prepared through transfection of the recombinant NL4-3 proviral clone into 293T cells using Transit-293 Transfection Reagent from Mirus Bio LLC (Madison, WI). Supernatant was harvested after 2-3 days and the amount of virus present was titered in MT-2 cells using luciferase enzyme activity as a marker by measuring luciferase enzyme activity. Luciferase was quantitated using the EnduRen Live Cell Substrate from Promega (Madison, WI). Antiviral activities of compounds toward the recombinant virus were quantified by measuring luciferase activity in MT-2 cells infected for 4-5 days with the recombinant virus in the presence of serial dilutions of the compound.
The 50% effective concentration (EC50) was calculated by using the exponential form of the median effect equation where (Fa)=1/[1+(ED50/drug conc.)m] (Johnson VA, Byington RT. Infectivity Assay. In Techniques in HIV Research. ed. Aldovini A, Walker BD. 71-76. New York: Stockton Press.1990). Curve fitting and analysis were performed with ActivityBase XE Runner software version 9.1.0.4 using model 203 (ID Business Solutions, LTD, Guildford, UK).

Some results are limits rather than exact numbers.

Consider `Cn1nc(NS(C)(=O)=O)c2c(Cl)ccc(-n3c([C@H](Cc4cc(F)cc(F)c4)NC(=O)Cn4nc(C(F)F)c5c4C(F)(F)[C@@H]4C[C@H]54)nc4nc(OCc5ccn(CC(F)(F)F)n5)ccc4c3=O)c21` (atropisomer, axis not shown; (P)) [Example 24, N-((S)-1-((3P)-3-(4-chloro-1-methyl-3-(methylsulfonamido)-1H-indazol-7-yl)-4-oxo-7-((1-(2,2,2-trifluoroethyl)-1H-pyrazol-3-yl)methoxy)-3,4-dihydropyrido[2,3-d]pyrimidin-2-yl)-2-(3,5-difluorophenyl)ethyl)-2-((3bS,4aR)-3-(difluoromethyl)-5,5-difluoro-3b,4,4a,5-tetrahydro-1H-cyclopropa[3,4]cyclopenta[1,2-c]pyrazol-1-yl)acetamide], for which the CC50 (in general, the concentration at which the toxic effect on the cells reaches its halfway point) at 4 day in series [1] was more than 100 nM. In addition, the EC50 (usually the concentration needed to bring the measured effect to its halfway point) in series [2] worked out at 0.057 nM.

In series [1], `Cn1nc(NS(C)(=O)=O)c2c(Cl)ccc(-n3c([C@H](Cc4cc(F)cc(F)c4)NC(=O)Cn4nc(C(F)F)c5c4C(F)(F)[C@@H]4C[C@H]54)nc4nc(OCCNCC(F)(F)F)ccc4c3=O)c21` (atropisomer, axis not shown; (P)) [Example 25, N-((S)-1-((3P)-3-(4-chloro-1-methyl-3-(methylsulfonamido)-1H-indazol-7-yl)-4-oxo-7-(2-((2,2,2-trifluoroethyl)amino)ethoxy)-3,4-dihydropyrido[2,3-d]pyrimidin-2-yl)-2-(3,5-difluorophenyl)ethyl)-2-((3bS,4aR)-3-(difluoromethyl)-5,5-difluoro-3b,4,4a,5-tetrahydro-1H-cyclopropa[3,4]cyclopenta[1,2-c]pyrazol-1-yl)acetamide] showed a CC50 at 4 day of more than 100 nM. Moreover, the half-maximal effective concentration (EC50) in series [2] stood at 0.057 nM. On to `Cn1nc(NS(C)(=O)=O)c2c(Cl)ccc(-n3c([C@H](Cc4cc(F)cc(F)c4)NC(=O)Cn4nc(C(F)F)c5c4C(F)(F)[C@@H]4C[C@H]54)nc4nc(OC5CC(F)(F)C5)ccc4c3=O)c21` (atropisomer, axis not shown; (P)) [Example 30, N-[(1S)-1-[(3P)-3-(4-chloro-3-methanesulfonamido-1-methyl-1H-indazol-7-yl)-7-(3,3-difluorocyclobutoxy)-4-oxo-3H,4H-pyrido[2,3-d]pyrimidin-2-yl]-2-(3,5-difluorophenyl)ethyl]-2-[(2S,4R)-9-(difluoromethyl)-5,5-difluoro-7,8-diazatricyclo[4.3.0.0^2,^4]nona-1(6),8-dien-7-yl]acetamide], for which the CC50 at 4 day in series [1] is more than 500 nM. The EC50 in series [2] came out at 0.031 nM. In the case of `Cn1nc(NS(C)(=O)=O)c2c(Cl)ccc(-n3c([C@H](Cc4cc(F)cc(F)c4)NC(=O)Cn4nc(C(F)F)c5c4C(F)(F)[C@@H]4C[C@H]54)nc4nc(OCCC(C)(C)c5ccccc5)ccc4c3=O)c21` (atropisomer, axis not shown; (P)) [Example 5, N-((S)-1-((3P)-3-(4-chloro-1-methyl-3-(methylsulfonamido)-1H-indazol-7-yl)-7-(3-methyl-3-phenylbutoxy)-4-oxo-3,4-dihydropyrido[2,3-d]pyrimidin-2-yl)-2-(3,5-difluorophenyl)ethyl)-2-((3bS,4aR)-3-(difluoromethyl)-5,5-difluoro-3b,4,4a,5-tetrahydro-1H-cyclopropa[3,4]cyclopenta[1,2-c]pyrazol-1-yl)acetamide], the CC50 at 4 day in series [1] was more than 100 nM. Also, the EC50 in series [2] turned out to be 0.43 nM. The compound `CN(CCOc1ccc2c(=O)n(-c3ccc(Cl)c4c(NS(C)(=O)=O)nn(C)c34)c([C@H](Cc3cc(F)cc(F)c3)NC(=O)Cn3nc(C(F)F)c4c3C(F)(F)[C@@H]3C[C@H]43)nc2n1)CC(F)(F)F` (atropisomer, axis not shown; (P)) [Example 9, N-((S)-1-((3P)-3-(4-chloro-1-methyl-3-(methylsulfonamido)-1H-indazol-7-yl)-7-(2-(methyl(2,2,2-trifluoroethyl)amino)ethoxy)-4-oxo-3,4-dihydropyrido[2,3-d]pyrimidin-2-yl)-2-(3,5-difluorophenyl)ethyl)-2-((3bS,4aR)-3-(difluoromethyl)-5,5-difluoro-3b,4,4a,5-tetrahydro-1H-cyclopropa[3,4]cyclopenta[1,2-c]pyrazol-1-yl)acetamide] gave a CC50 at 4 day in series [1] of more than 100 nM. Further, the half-maximal effective concentration (EC50) in series [2] was 0.018 nM. For `Cc1ccnc(COc2ccc3c(=O)n(-c4ccc(Cl)c5c(NS(C)(=O)=O)nn(C)c45)c([C@H](Cc4cc(F)cc(F)c4)NC(=O)Cn4nc(C(F)F)c5c4C(F)(F)[C@@H]4C[C@H]54)nc3n2)n1` (atropisomer, axis not shown; (P)) [Example 7, N-((S)-1-((3P,3P)-3-(4-chloro-1-methyl-3-(methylsulfonamido)-1H-indazol-7-yl)-7-((4-methylpyrimidin-2-yl)methoxy)-4-oxo-3,4-dihydropyrido[2,3-d]pyrimidin-2-yl)-2-(3,5-difluorophenyl)ethyl)-2-((3bS,4aR)-3-(difluoromethyl)-5,5-difluoro-3b,4,4a,5-tetrahydro-1H-cyclopropa[3,4]cyclopenta[1,2-c]pyrazol-1-yl)acetamide], the CC50 at 4 day in series [1] was more than 500 nM. Also, in series [2], the EC50 worked out at 0.059 nM. With `Cn1nc(NS(C)(=O)=O)c2c(Cl)ccc(-n3c([C@H](Cc4cc(F)cc(F)c4)NC(=O)Cn4nc(C(F)F)c5c4C(F)(F)[C@@H]4C[C@H]54)nc4nc(Oc5ccccc5F)ccc4c3=O)c21` (atropisomer, axis not shown; (P)) [Example 37, N-((S)-1-((3P)-3-(4-chloro-1-methyl-3-(methylsulfonamido)-1H-indazol-7-yl)-7-(2-fluorophenoxy)-4-oxo-3,4-dihydropyrido[2,3-d]pyrimidin-2-yl)-2-(3,5-difluorophenyl)ethyl)-2-((3bS,4aR)-3-(difluoromethyl)-5,5-difluoro-3b,4,4a,5-tetrahydro-1H-cyclopropa[3,4]cyclopenta[1,2-c]pyrazol-1-yl)acetamide], in series [1], the CC50 at 4 day was more than 100 nM. Besides, the EC50 in series [2] was 0.081 nM.

As to `COC1(CCOc2ccc3c(=O)n(-c4ccc(Cl)c5c(NS(C)(=O)=O)nn(C)c45)c([C@H](Cc4cc(F)cc(F)c4)NC(=O)Cn4nc(C(F)F)c5c4C(F)(F)[C@@H]4C[C@H]54)nc3n2)CCC1` (atropisomer, axis not shown; (P)) [Example 16, N-((S)-1-((3P,3P)-3-(4-chloro-1-methyl-3-(methylsulfonamido)-1H-indazol-7-yl)-7-(2-(1-methoxycyclobutyl)ethoxy)-4-oxo-3,4-dihydropyrido[2,3-d]pyrimidin-2-yl)-2-(3,5-difluorophenyl)ethyl)-2-((3bS,4aR)-3-(difluoromethyl)-5,5-difluoro-3b,4,4a,5-tetrahydro-1H-cyclopropa[3,4]cyclopenta[1,2-c]pyrazol-1-yl)acetamide], the CC50 at 4 day in series [1] is more than 100 nM. For the same compound, the concentration giving a half-maximal response (EC50) in series [2] was 0.03 nM.

As for `Cn1nc(NS(C)(=O)=O)c2c(Cl)ccc(-n3c([C@H](Cc4cc(F)cc(F)c4)NC(=O)Cn4nc(C(F)F)c5c4C(F)(F)[C@@H]4C[C@H]54)nc4nc(Oc5ccc(F)cc5F)ccc4c3=O)c21` (atropisomer, axis not shown; (P)) [Example 36, N-((S)-1-((3P)-3-(4-chloro-1-methyl-3-(methylsulfonamido)-1H-indazol-7-yl)-7-(2,4-difluorophenoxy)-4-oxo-3,4-dihydropyrido[2,3-d]pyrimidin-2-yl)-2-(3,5-difluorophenyl)ethyl)-2-((3bS,4aR)-3-(difluoromethyl)-5,5-difluoro-3b,4,4a,5-tetrahydro-1H-cyclopropa[3,4]cyclopenta[1,2-c]pyrazol-1-yl)acetamide], in series [1], the CC50 at 4 day was more than 100 nM. For the same compound, in series [2], the EC50 amounted to 0.081 nM.

The compound `Cn1nc(NS(C)(=O)=O)c2c(Cl)ccc(-n3c([C@H](Cc4cc(F)cc(F)c4)NC(=O)Cn4nc(C(F)F)c5c4C(F)(F)[C@@H]4C[C@H]54)nc4nc(OCCC5CC(F)(F)C5)ccc4c3=O)c21` (atropisomer, axis not shown; (P)) [Example 32, N-((S)-1-((3P,3P)-3-(4-chloro-1-methyl-3-(methylsulfonamido)-1H-indazol-7-yl)-7-(2-(3,3-difluorocyclobutyl)ethoxy)-4-oxo-3,4-dihydropyrido[2,3-d]pyrimidin-2-yl)-2-(3,5-difluorophenyl)ethyl)-2-((3bS,4aR)-3-(difluoromethyl)-5,5-difluoro-3b,4,4a,5-tetrahydro-1H-cyclopropa[3,4]cyclopenta[1,2-c]pyrazol-1-yl)acetamide] showed a half-maximal cytotoxic concentration (CC50) at 4 day in series [1] of more than 100 nM.
